Source: patent US10450341B2, “Cyclic di-nucleotides as modulators of STING” (GlaxoSmithKline Intellectual Property Development Limited, priority 2014, dated 2019)

Target: STING (Homo sapiens, UniProt Q86WV6)
Assay: STING binding assay similar to that described by Li et al

Sequence of STING (Q86WV6 whole entry H232R, species assumed): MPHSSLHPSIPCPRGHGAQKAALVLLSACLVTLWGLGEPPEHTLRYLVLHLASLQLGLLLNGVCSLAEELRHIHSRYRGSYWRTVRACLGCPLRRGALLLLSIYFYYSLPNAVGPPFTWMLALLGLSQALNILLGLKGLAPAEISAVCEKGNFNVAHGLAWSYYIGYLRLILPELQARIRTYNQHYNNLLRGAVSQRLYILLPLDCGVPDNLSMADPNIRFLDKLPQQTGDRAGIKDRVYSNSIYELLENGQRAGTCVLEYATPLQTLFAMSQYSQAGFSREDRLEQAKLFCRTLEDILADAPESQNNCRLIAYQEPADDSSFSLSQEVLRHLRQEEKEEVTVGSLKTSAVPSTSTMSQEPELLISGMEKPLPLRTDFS

IC50: < 100 µM
SMILES: Nc1nc2c(ncn2[C@@H]2C[C@@H]3COP(=O)(O)O[C@H]4[C@@H](F)[C@H](n5cnc6c(N)ncnc65)O[C@@H]4COP(=O)(O)O[C@@H]2[C@@H]3O)c(=O)[nH]1 [Example 4, (1S,6R,8R,9R,10R,15R,17R,18R)-17-(2-Amino-6-oxo-6,9-dihydro-1H-purin-9-yl)-8-(6-amino-9H-purin-9-yl)-9-fluoro-3,12,18-trihydroxy-2,4,7,11,13-pentaoxa-3λ^5,12λ^5-diphosphatricyclo[13.2.1.0^6,10]octadecane-3,12-dione]
